Target: T1, FtsZ (Acinetobacter baumannii, UniProt A0ABX6CKC9)
T1 construct: full-length (1176 bp ftsZ gene), SUMO tag removed
Assay: PK/LDH coupled GTPase assay on purified FtsZ; sedimentation polymerization assay
Assay type: biochemical

T1 sequence (A0ABX6CKC9 entry or part of it): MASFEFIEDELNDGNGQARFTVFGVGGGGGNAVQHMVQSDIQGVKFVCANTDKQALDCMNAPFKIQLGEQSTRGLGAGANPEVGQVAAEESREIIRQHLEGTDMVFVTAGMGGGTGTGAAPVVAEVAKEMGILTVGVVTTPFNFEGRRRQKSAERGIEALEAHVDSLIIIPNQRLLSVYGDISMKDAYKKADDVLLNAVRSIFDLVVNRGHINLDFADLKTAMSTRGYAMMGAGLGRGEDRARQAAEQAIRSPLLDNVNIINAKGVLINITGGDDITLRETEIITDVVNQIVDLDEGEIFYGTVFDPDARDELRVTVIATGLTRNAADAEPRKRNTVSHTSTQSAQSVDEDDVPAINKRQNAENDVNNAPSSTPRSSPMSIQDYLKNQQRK

COC(=O)CSc1ccc2nsnc2c1[N+](=O)[O-] [C109, methyl [(4-nitro-2,1,3-benzothiadiazol-5-yl)thio]acetate]
IC50: 11.8 µM

Source: publication PMC9687021, “Bactericidal and Anti-Biofilm Activity of the FtsZ Inhibitor C109 against Acinetobacter baumannii” (Antibiotics, 2022)
